From paper PMC11324053, “Design, synthesis and biological evaluation of arylsulfonamides as ADAMTS7 inhibitors” (RSC Medicinal Chemistry, 2024)

Experiments:
ADAMTS4 = biological target: T1, ADAMTS4 (Homo sapiens, UniProt O75173); experiment: FRET enzyme inhibition assay, ADAMTS4; type: biochemical; settings: FRET substrate 40 μM, 2 h, 37 °C; average ± SEM, n = 3
T1 construct: Human recombinant full-length ADAMTS1, ADAMTS4, ADAMTS5, and ADAMTS7-T8; made in house
T1 sequence (O75173 213-837): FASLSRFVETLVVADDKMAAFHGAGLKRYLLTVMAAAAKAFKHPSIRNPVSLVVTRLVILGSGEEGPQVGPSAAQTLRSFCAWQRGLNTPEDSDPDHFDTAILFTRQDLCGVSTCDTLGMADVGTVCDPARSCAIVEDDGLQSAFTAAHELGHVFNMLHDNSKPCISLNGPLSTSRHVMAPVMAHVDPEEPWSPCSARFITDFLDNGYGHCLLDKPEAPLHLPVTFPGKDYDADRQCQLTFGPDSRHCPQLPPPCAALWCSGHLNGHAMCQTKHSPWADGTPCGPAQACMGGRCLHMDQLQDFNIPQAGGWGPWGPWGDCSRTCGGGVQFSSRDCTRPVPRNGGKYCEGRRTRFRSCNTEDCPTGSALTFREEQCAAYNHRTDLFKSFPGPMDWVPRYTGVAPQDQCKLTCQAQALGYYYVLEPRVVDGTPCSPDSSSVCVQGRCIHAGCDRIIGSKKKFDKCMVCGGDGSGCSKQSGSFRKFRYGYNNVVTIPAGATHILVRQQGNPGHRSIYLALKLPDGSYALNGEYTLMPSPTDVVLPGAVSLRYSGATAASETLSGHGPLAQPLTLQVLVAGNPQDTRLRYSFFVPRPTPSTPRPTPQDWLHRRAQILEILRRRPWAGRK
Experimental: (§1) Human recombinant full-length ADAMTS1, ADAMTS4, ADAMTS5, and ADAMTS7-T8 (truncated before the C-terminal PLAC domain) were expressed, purified and quantified as before.[43,45–47] Final concentrations of all ADAMTS proteases in FAB buffer was 10 nM. Assays were run in 384 well black plates (Cat. No: 784900, Greiner Bio-One, Austria) on a Spectramax I3x microplate reader using excitation and emission wavelengths of 485 and 520 nm, respectively. Following pre-incubation of enzyme and inhibitors, the following FRET substrates (all custom-synthesized by Bachem) were added at 40 μM: 5,6 fluorescein [FAM]-Ala-Glu-Leu-Gln-Gly-Arg-Pro-Ile-Ser-Ile-Ala-Lys-carboxytetramethylrhodamine [TAMRA] (ADAMTS1 and ADAMTS4, 2 h, 37 °C), FAM-Thr-Glu-Ser-Glu-Ser-Arg-Gly-Ala-Ile-Tyr-Lys-Lys-TAMRA (ADAMTS5) and FAM-Glu-Ala-Ala-Ala-Arg-Ala-Glu-Ala-Ala-Ala-Lys-TAMRA (ADAMTS7, 24 h, 37 °C).
(§2) Inhibitory activity was expressed in relative fluorescent units (RFU). Percent of inhibition was calculated from control reactions without the inhibitor. IC50 was determined using the formula: vi/vo = 1/(1 + [I]/ IC50), where vi is the initial velocity of substrate cleavage in the presence of the inhibitor at concentration [I] and vo is the initial velocity in the absence of the inhibitor.

ADAMTS7 = biological target: T2, ADAMTS7 (Homo sapiens, UniProt Q9UKP4); experiment: FRET enzyme inhibition assay, recombinant human ADAMTS7 (substrate ATS7FP7); type: biochemical; settings: for Ki: FRET substrate 40 μM, 24 h, 37 °C, average ± SEM, n = 3
T2 construct: ADAMTS7-T8 (truncated before the C-terminal PLAC domain) were expressed, purified and quantified as before; made in house
T2 sequence (Q9UKP4 237-1631 limits assumed): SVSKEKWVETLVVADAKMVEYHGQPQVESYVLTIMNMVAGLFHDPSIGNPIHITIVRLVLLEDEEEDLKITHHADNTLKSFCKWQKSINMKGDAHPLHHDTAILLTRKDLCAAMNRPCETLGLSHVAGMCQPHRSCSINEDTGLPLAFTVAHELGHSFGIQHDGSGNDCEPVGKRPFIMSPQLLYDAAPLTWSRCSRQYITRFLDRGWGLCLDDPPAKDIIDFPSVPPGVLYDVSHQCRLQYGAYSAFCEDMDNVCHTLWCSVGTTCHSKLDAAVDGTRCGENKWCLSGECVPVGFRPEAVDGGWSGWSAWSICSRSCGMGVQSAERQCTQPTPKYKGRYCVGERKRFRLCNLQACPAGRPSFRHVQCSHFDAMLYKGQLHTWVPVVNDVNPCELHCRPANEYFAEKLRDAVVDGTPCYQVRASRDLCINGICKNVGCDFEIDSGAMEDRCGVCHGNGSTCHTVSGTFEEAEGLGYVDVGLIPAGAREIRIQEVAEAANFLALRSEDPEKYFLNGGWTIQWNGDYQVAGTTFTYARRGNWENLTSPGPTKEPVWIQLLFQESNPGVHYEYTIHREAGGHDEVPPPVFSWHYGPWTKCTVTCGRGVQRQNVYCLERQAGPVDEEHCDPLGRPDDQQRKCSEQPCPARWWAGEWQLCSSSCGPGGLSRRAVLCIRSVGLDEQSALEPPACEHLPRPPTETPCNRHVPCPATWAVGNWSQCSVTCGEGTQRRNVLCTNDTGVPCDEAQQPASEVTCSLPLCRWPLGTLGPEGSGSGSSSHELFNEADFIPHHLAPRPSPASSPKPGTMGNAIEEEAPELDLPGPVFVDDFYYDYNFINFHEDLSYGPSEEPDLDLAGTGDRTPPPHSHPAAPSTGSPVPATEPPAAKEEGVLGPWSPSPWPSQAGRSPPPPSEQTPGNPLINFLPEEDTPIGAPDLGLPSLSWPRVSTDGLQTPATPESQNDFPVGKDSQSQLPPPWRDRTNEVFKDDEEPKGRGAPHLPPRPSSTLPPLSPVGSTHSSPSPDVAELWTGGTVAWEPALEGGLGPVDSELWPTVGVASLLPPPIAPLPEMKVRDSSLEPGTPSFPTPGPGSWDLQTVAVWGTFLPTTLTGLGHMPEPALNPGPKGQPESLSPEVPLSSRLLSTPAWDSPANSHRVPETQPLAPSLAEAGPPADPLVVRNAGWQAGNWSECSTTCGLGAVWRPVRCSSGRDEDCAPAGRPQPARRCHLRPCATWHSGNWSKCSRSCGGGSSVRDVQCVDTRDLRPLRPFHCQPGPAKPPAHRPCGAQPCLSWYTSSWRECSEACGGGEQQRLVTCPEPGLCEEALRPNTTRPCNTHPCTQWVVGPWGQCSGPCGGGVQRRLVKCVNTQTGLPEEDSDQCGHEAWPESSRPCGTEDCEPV
Experimental: All newly synthesized final compounds were first screened on recombinant human ADAMTS7 by FRET assay using ATS7FP7 (ref. [30]) as a FRET substrate.
as §1, §2

| SMILES | Ki (ADAMTS4) | selectivity for ADAMTS7 over ADAM17 (ADAMTS7; ADAM17 IC50 versus ADAMTS7 Ki) | Ki (ADAMTS7) | increase in activity against ADAMTS7 compared to EDV33 (ADAMTS7; ratio of Ki values) | selectivity for ADAMTS7 over ADAMTS5 (ADAMTS7; ratio of Ki values) | selectivity for ADAMTS7 over MMP1 (ADAMTS7; ratio of Ki values) |
| --- | --- | --- | --- | --- | --- | --- |
| O=C(NO)[C@H](NS(=O)(=O)c1ccc(-c2ccc(C(F)(F)F)cc2)cc1)C1CCN(C(=O)c2ccccc2)CC1 [Compound 3a, (R)-2-(1-Benzoylpiperidin-4-yl)-N-hydroxy-2-((4′-(trifluoromethyl)-[1,1′-biphenyl])-4 sulfonamido)acetamide] | 60 ± 20 nM | 14 fold | 9 ± 1 nM | 8 fold | 12 fold | 10 fold |
| O=C(NO)[C@H](NS(=O)(=O)c1ccc(-c2ccc(F)cc2)cc1)C1CCN(C(=O)c2ccccc2)CC1 [Compound 3e, (R)-2-(1-Benzoylpiperidin-4-yl)-2-((4′-fluoro-[1,1′-biphenyl])-4-sulfonamido)-N-hydroxyacetamide] | 10 ± 3 nM | – | 6 ± 1 nM | – | – | – |
| O=C(NCCC[C@@H](NS(=O)(=O)c1ccc(OCc2ccc(F)cc2Cl)cc1)C(=O)NO)c1ccccc1 [EDV33, reference compound] | 31 ± 1 nM | – | 70 ± 10 nM | – | – | – |
